Data on 22 molecules can be found in ChEMBL document CHEMBL5665440, “ASAP - In vitro liver microsomal stability” (2024).

Data set [1] in a line: Human liver microsomal stability of compound in microsomal protein, PBS buffer pH 7.4, NADPH, glucose-6-phosphate and glucose-6-phosphate dehydrogenase media. Aliquotes were taken at 5 time points and after stopping the reaction, supernatants were analyzed using HPLC coupled with a tandem mass spectrometer. The elimination constant, half-life, and intrinsic clearance are determined as results using linear regression analysis. The class given is ADME, microsomes, Microsome. The following applies: for half-life / microsomal CLint: liver microsomes; for Remaining / Remaining (without cofactor): microsomes. A general note: Microsomes from liver hold many membrane-bound enzymes, among them those of drug oxidation.

Data set [2] can be described thus: Mouse liver microsomal stability of compound in microsomal protein, PBS buffer pH 7.4, NADPH, glucose-6-phosphate and glucose-6-phosphate dehydrogenase media. Aliquotes were taken at 5 time points and after stopping the reaction, supernatants were analyzed using HPLC coupled with a tandem mass spectrometer. The elimination constant, half-life, and intrinsic clearance are determined as results using linear regression analysis. In kind it is ADME, microsomes, Microsome. The following applies: for half-life / microsomal CLint: liver microsomes; for Remaining / Remaining (without cofactor): microsomes.
Throughout, for Remaining (without cofactor): time not given here.
Throughout, for Remaining: time not given here.

Regarding `COCCNC(=O)[C@H](Nc1ccc2c(c1)CNC2)c1cc(Cl)cc(C2CC2)c1`, in data set [1], the half-life was 1.42 h, the microsomal CLint was found to be 19.7 µL/min/mg, the Remaining was found to be 68.563% and the “Remaining (without cofactor)” value stood at 103.817%. Also, in data set [2], the half-life turned out to be 2.38 h, the microsomal CLint worked out at 11.7 µL/min/mg, the Remaining is given as 84.686% and the “Remaining (without cofactor)” value came to 107.462%.
As for `N#CCCNC(=O)[C@H](Nc1ccc2c(c1)CNC2)c1cc(Cl)cc(C2CC2)c1`, in data set [1], the half-life was greater than 2.89 h, the microsomal CLint was less than 10 µL/min/mg, the Remaining worked out at 90.394% and the “Remaining (without cofactor)” value is reported as 113.364%. In data set [2], the half-life was greater than 2.89 h, the microsomal CLint is less than 10 µL/min/mg, the Remaining was 93.147% and the “Remaining (without cofactor)” value is 101.58%.
For `CNC(=O)[C@H](Nc1ccc2c(c1)CNC2)c1cc(Cl)cc(C2CC2)c1`, in data set [1], the half-life was greater than 2.89 h, the microsomal CLint was less than 10 µL/min/mg, the Remaining came to 90.859% and the “Remaining (without cofactor)” value came out at 112.656%. In data set [2], the half-life was greater than 2.89 h, the microsomal CLint was less than 10 µL/min/mg, the Remaining is recorded as 87.863% and the “Remaining (without cofactor)” value is 93.167%.
`CN(c1ccc2c(c1)CNC2)[C@H](C(=O)NCC(F)F)c1cc(Cl)cc(C2CC2)c1`: in data set [1], the half-life was 1.63 h, the microsomal CLint stood at 17.1 µL/min/mg, the Remaining is 74.869% and the “Remaining (without cofactor)” value is given as 95.997%. In addition, in data set [2], the half-life stood at 2.63 h, the microsomal CLint is 10.6 µL/min/mg, the Remaining came to 80.041% and the “Remaining (without cofactor)” value stood at 110.954%.
On to `O=C(Nc1ccc2c(c1)CNC2)c1cccc2[nH]c(C(F)(F)F)cc12`, for which, in data set [1], the half-life was found to be 1.97 h, the microsomal CLint came out at 14.1 µL/min/mg, the Remaining came out at 78.018% and the “Remaining (without cofactor)” value is given as 74.757%. In addition, in data set [2], the half-life was 2.19 h, the microsomal CLint was 12.7 µL/min/mg, the Remaining was found to be 75.758% and the “Remaining (without cofactor)” value was 108.523%.
`O=C(NCC(F)F)[C@H](Nc1ccc2c(c1)CNC2)c1cc(Br)cc2nc[nH]c12`: in data set [1], the half-life was greater than 2.89 h, the microsomal CLint is less than 10 µL/min/mg, the Remaining turned out to be 100.118% and the “Remaining (without cofactor)” value came to 106.151%. In addition, in data set [2], the half-life was greater than 2.89 h, the microsomal CLint was less than 10 µL/min/mg, the Remaining is given as 93.302% and the “Remaining (without cofactor)” value is given as 93.905%.
Take `O=C(Nc1ccc2c(c1)CNC2)c1ccc2[nH]cc(C3CCNCC3)c2c1`: in data set [1], the half-life was greater than 2.89 h, the microsomal CLint is less than 10 µL/min/mg, the Remaining is 86.755% and the “Remaining (without cofactor)” value is 110.939%. In addition, in data set [2], the half-life is greater than 2.89 h, the microsomal CLint was less than 10 µL/min/mg, the Remaining was determined as 86.057% and the “Remaining (without cofactor)” value is 94.216%.
Regarding `O=C(NCCCF)[C@H](Nc1ccc2c(c1)CNC2)c1cc(Cl)cc(C2CC2)c1`, in data set [1], the half-life was 1.75 h, the microsomal CLint amounted to 15.9 µL/min/mg, the Remaining is 77.399% and the “Remaining (without cofactor)” value was 95.756%. Besides, in data set [2], the half-life came to 1.6 h, the microsomal CLint amounted to 17.4 µL/min/mg, the Remaining came to 76.547% and the “Remaining (without cofactor)” value is recorded as 97.886%.
For the molecule `COCc1cc(Cl)cc([C@H](Nc2ccc3c(c2)CNC3)C(=O)NCC(F)F)c1`, in data set [1], the half-life was greater than 2.89 h, the microsomal CLint is less than 10 µL/min/mg, the Remaining is reported as 94.228% and the “Remaining (without cofactor)” value stood at 112.017%. Besides, in data set [2], the half-life is greater than 2.89 h, the microsomal CLint is less than 10 µL/min/mg, the Remaining was found to be 97.4% and the “Remaining (without cofactor)” value was found to be 108.672%.
With `CO[C@H]1C[C@H](n2ncc3c(C(=O)Nc4ccc5c(c4)CNC5)cc(Cl)cc32)C1`, in data set [1], the half-life is greater than 2.89 h, the microsomal CLint is less than 10 µL/min/mg, the Remaining worked out at 104.617% and the “Remaining (without cofactor)” value stood at 107.995%. In data set [2], the half-life is greater than 2.89 h, the intrinsic metabolic clearance (microsomal CLint) is less than 10 µL/min/mg, the Remaining is given as 91.321% and the “Remaining (without cofactor)” value was 100.159%.
`Cn1cc2c(C(=O)Nc3ccc4c(c3)CNC4)cc(F)cc2n1`: in data set [1], the half-life was greater than 2.89 h, the microsomal CLint was less than 10 µL/min/mg, the Remaining is 100.772% and the “Remaining (without cofactor)” value stood at 105.44%. For the same molecule, in data set [2], the half-life was 1.53 h, the microsomal CLint worked out at 18.2 µL/min/mg, the Remaining was determined as 76.341% and the “Remaining (without cofactor)” value is given as 103.175%.
With `O=C(NCC(F)F)[C@H](Nc1cc2c(cc1Br)CNC2)c1cc(Cl)cc(C2CC2)c1`, in data set [1], the half-life worked out at 1.08 h, the microsomal CLint is 25.9 µL/min/mg, the Remaining came out at 67.209% and the “Remaining (without cofactor)” value is listed as 94.723%. Besides, in data set [2], the half-life is 1.21 h, the microsomal CLint stood at 22.9 µL/min/mg, the Remaining is 69.524% and the “Remaining (without cofactor)” value is on record as 97.036%.
In the case of `COc1ccc(-c2nc3c(C(=O)Nc4ccc5c(c4)CNC5)cc(F)cc3[nH]2)nn1`, in data set [1], the half-life is greater than 2.89 h, the microsomal CLint is less than 10 µL/min/mg, the Remaining is reported as 87.708% and the “Remaining (without cofactor)” value was 99.462%. Also, in data set [2], the half-life is 1.64 h, the microsomal CLint turned out to be 16.9 µL/min/mg, the Remaining is 73.587% and the “Remaining (without cofactor)” value came to 92.469%.
Take `CCCCNC(=O)[C@H](Nc1ccc2c(c1)CNC2)c1cc(Cl)cc(C2CC2)c1`: in data set [1], the half-life was determined as 1.72 h, the microsomal CLint was found to be 16.2 µL/min/mg, the Remaining came out at 75.607% and the “Remaining (without cofactor)” value is 97.272%. Besides, in data set [2], the half-life was determined as 1.43 h, the microsomal CLint was 19.5 µL/min/mg, the Remaining is 73.231% and the “Remaining (without cofactor)” value was determined as 102.386%.
`COc1cc(Cl)cc([C@H](Nc2ccc3c(c2)CNC3)C(=O)NCC(F)F)c1`: in data set [1], the half-life was greater than 2.89 h, the microsomal CLint was less than 10 µL/min/mg, the Remaining was found to be 91.954% and the “Remaining (without cofactor)” value worked out at 107.924%. Further, in data set [2], the half-life was 2.16 h, the microsomal CLint came out at 12.9 µL/min/mg, the Remaining is reported as 81.928% and the “Remaining (without cofactor)” value is reported as 96.342%.
Regarding `O=C(Nc1cc(Br)c2c(c1)CNC2)c1cc(F)cc2[nH]ncc12`, in data set [1], the half-life stood at 2.05 h, the microsomal CLint amounted to 13.6 µL/min/mg, the Remaining amounted to 77.163% and the “Remaining (without cofactor)” value is on record as 100.794%. Further, in data set [2], the half-life was determined as 0.192 h, the microsomal CLint was 145 µL/min/mg, the Remaining worked out at 10.289% and the “Remaining (without cofactor)” value is recorded as 104.117%.
Consider `O=C1Cc2c(cc(F)cc2C(=O)Nc2ccc3c(c2)CNC3)N1`, for which, in data set [1], the half-life is greater than 2.89 h, the microsomal CLint is less than 10 µL/min/mg, the Remaining is recorded as 99% and the “Remaining (without cofactor)” value turned out to be 112.283%. In addition, in data set [2], the half-life was greater than 2.89 h, the microsomal CLint was less than 10 µL/min/mg, the Remaining came to 87.64% and the “Remaining (without cofactor)” value is 93.435%.
Take `O=C(NCC(F)F)[C@H](Nc1cnc2c(c1)CNC2)c1cc(Cl)cc(C2CC2)c1`: in data set [1], the half-life was greater than 2.89 h, the microsomal CLint is less than 10 µL/min/mg, the Remaining was found to be 91.952% and the “Remaining (without cofactor)” value is given as 110.51%. For the same molecule, in data set [2], the half-life is greater than 2.89 h, the microsomal CLint is less than 10 µL/min/mg, the Remaining was 87.443% and the “Remaining (without cofactor)” value is listed as 105.088%.
For the molecule `Cc1cc([C@H](Nc2ccc3c(c2)CNC3)C(=O)NCC(F)F)cc(C(F)(F)F)c1`, in data set [1], the half-life is greater than 2.89 h, the microsomal CLint is less than 10 µL/min/mg, the Remaining was determined as 89.032% and the “Remaining (without cofactor)” value is on record as 105.687%. Besides, in data set [2], the half-life stood at 2.49 h, the microsomal CLint amounted to 11.2 µL/min/mg, the Remaining was 85.983% and the “Remaining (without cofactor)” value came out at 88.687%.
Regarding `O=C(NCC(F)F)[C@H](Nc1ccc2c(c1)CNC2)c1cc(Cl)cc2c1CCC2`, in data set [1], the half-life came to 1.99 h, the microsomal CLint was 14 µL/min/mg, the Remaining is reported as 80.194% and the “Remaining (without cofactor)” value came to 105.323%. In addition, in data set [2], the half-life was determined as 0.882 h, the microsomal CLint was 31.6 µL/min/mg, the Remaining is 60.623% and the “Remaining (without cofactor)” value is reported as 103.851%.
Consider `Cn1ncc2c(C(=O)Nc3ccc4c(c3)CNC4)cc(Cl)cc21`, for which, in data set [1], the half-life was greater than 2.89 h, the microsomal CLint was less than 10 µL/min/mg, the Remaining stood at 91.353% and the “Remaining (without cofactor)” value was 101.456%. Besides, in data set [2], the half-life came out at 1.09 h, the microsomal CLint is 25.5 µL/min/mg, the Remaining was found to be 63.701% and the “Remaining (without cofactor)” value stood at 92.242%.
For the molecule `COc1cc(C#N)cc([C@H](Nc2ccc3c(c2)CNC3)C(=O)NCC(F)F)c1`, in data set [1], the half-life is greater than 2.89 h, the microsomal CLint is less than 10 µL/min/mg, the Remaining was 93.073% and the “Remaining (without cofactor)” value came to 104.062%. Besides, in data set [2], the half-life is greater than 2.89 h, the microsomal CLint is less than 10 µL/min/mg, the Remaining came to 90.033% and the “Remaining (without cofactor)” value amounted to 104.77%.

The half-life is how long it takes for the measured level to halve. A high value points to slow loss. The microsomal CLint is a measure of how fast metabolising enzymes remove a compound, apart from limits set by blood flow. Low readings indicate greater metabolic stability, high ones faster metabolism.
